Read-outs that look alike come from different tables or passages of the source. Numbered stars: 1 amine (or outer) side, 2 acyl side, 3 side chain; on linkers, the order of the positions; unused ones are H or OH. Bridge positions count the residues as written; N and C are the ends. Square brackets hold non-standard residues; d marks the D form. Peptide text beside a SMILES is read from it. * marks the point of attachment. C20 diacid = O=C(O)CCCCCCCCCCCCCCCCCCC(=O)*; C18 diacid = O=C(O)CCCCCCCCCCCCCCCCC(=O)*; γGlu = O=C(O)[C@H](CCC(=O)[*:2])N[*:1]; NMeI = CC[C@H](C)[C@H](NC)C(=O)O; Sar = CNCC(=O)O
What was measured:
[1] = biological target: T1, human calcitonin receptor (hCTR2) (Homo sapiens, UniProt P30988); experiment: hCTR2 assay: induction of cAMP (AlphaScreen cAMP Assay kit) in COS7 cells expressing hCTR2; type: cell-based
T1 construct: expressed in transfected cells
T1 sequence (P30988 25-474): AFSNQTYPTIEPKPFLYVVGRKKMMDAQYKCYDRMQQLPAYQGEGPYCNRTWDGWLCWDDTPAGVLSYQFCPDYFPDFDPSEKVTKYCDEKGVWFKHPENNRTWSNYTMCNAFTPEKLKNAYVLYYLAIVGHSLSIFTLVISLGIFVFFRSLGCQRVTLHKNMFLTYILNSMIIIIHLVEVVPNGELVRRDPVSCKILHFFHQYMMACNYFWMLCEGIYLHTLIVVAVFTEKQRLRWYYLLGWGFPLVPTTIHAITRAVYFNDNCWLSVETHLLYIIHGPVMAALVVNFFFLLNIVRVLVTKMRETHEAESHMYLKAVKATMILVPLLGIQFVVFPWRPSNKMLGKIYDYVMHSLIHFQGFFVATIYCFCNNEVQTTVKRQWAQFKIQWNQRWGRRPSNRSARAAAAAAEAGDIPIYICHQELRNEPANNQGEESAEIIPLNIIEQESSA
Summary of the method: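 Peptide-induced cAMP in hCTR2-expressing COS7 cells, 15 min at 37° C with phosphodiesterase inhibitor IBMX (100 µM), detected by AlphaScreen; potency from 4PL curves.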

[2] = Solubility assessment (turbidity absorbance at 325 nm); type: physicochemical; details: stock 2 mg/ml diluted 1:1, ambient temperature (typically 25°C), n=1; for Solubility, Acetate buffer pH 4: 100 mM acetate buffer pH 4.0; for Solubility, Acetate buffer pH 5: 100 mM acetate buffer pH 5.0; for Solubility, Histidine buffer pH 6: 100 mM histidine buffer pH 6.0; for Solubility, Histidine buffer pH 7: 100 mM histidine buffer pH 7.0; for Solubility, Phosphate buffer pH 6: 100 mM phosphate buffer pH 6.0; for Solubility, Phosphate buffer pH 7: 100 mM phosphate buffer pH 7.0; for Solubility, Phosphate buffer pH 7.5: 100 mM phosphate buffer pH7.5
Method: A stock solution of the test peptide (2 mg/ml; determined from the weighed amount of peptide) in demineralized water adjusted to pH 2.5 with HCI was prepared, and aliquots were diluted 1:1 in 100 mM acetate buffer (pH 4.0 and pH 5.0), 100 mM histidine buffer (pH 6.0 and pH 7.0) and 100 mM phosphate buffer (pH 6.0, pH 7.0 and pH7.5), respectively, and loaded in a standard flat-bottom, non-sterile 96-well UV Microplate. The absorbance of samples (single samples, n=1) at 280 and 325 nm was measured in an absorbance-based plate reader, which was preheated to ambient temperature (typically 25°C). The turbidity absorbance criterion for a peptide solubility of ≥ 1 mg/ml was an absorbance at 325 nm of ≤ 0.02 absorbance units (which is 5 to 6 times the standard deviation of 8 buffer samples in a plate). Solubility data for peptides of the invention, pramlintide, and for a comparison pramlintide derivative denoted NN96 (see Example 5 below for details) are shown in Table 1, below. Table 1. Solubility data for compounds of the invention.

[3] = cAMP induction in COS7 cells expressing hCTR2, average of a minimum of 3 determinations, read-out: hCTR2 EC50

Compound	EC50 [1, 3]	Solubility, Acetate buffer pH 4 [2]	Solubility, Acetate buffer pH 5 [2]	Solubility, Histidine buffer pH 6 [2]	Solubility, Histidine buffer pH 7 [2]	Solubility, Phosphate buffer pH 6 [2]	Solubility, Phosphate buffer pH 7 [2]	Solubility, Phosphate buffer pH 7.5 [2]	EC50 [1]
CC[C@H](C)[C@@H](C(=O)N[C@@H](CC(C)C)C(=O)N[C@@H](CO)C(=O)N[C@@H](CO)C(=O)N[C@H](C(=O)N[C@@H](CCC(=O)O)C(=O)N[C@H](C(=O)NCC(=O)N[C@@H](CO)C(=O)N[C@@H](CC(=O)O)C(=O)N[C@H](C(=O)N1CCC[C@H]1C(N)=O)[C@@H](C)O)C(C)C)[C@@H](C)O)N(C)C(=O)CN(C)C(=O)[C@H](Cc1ccccc1)NC(=O)[C@H](CO)NC(=O)[C@H](CO)NC(=O)[C@H](CCCNC(=N)N)NC(=O)[C@H](Cc1c[nH]cn1)NC(=O)[C@H](CC(C)C)NC(=O)[C@H](Cc1ccccc1)NC(=O)[C@H](CCC(=O)O)NC(=O)[C@H](C)NC(=O)[C@H](CC(C)C)NC(=O)[C@H](CCCNC(=N)N)NC(=O)[C@H](CCC(N)=O)NC(=O)[C@@H](NC(=O)[C@H](C)NC(=O)[C@@H]1CSSC[C@H](NC(=O)[C@H](CCCNC(=N)N)NC(=O)CC[C@H](NC(=O)CCCCCCCCCCCCCCCCCCC(=O)O)C(=O)O)C(=O)N[C@@H](CC(N)=O)C(=O)N[C@@H]([C@@H](C)O)C(=O)N[C@@H](C)C(=O)N[C@@H]([C@@H](C)O)C(=O)N1)[C@@H](C)O [Compound 79, [19CD]-isoGlu-RC()NTATC()ATQRLAEFLHRSSF-Gly(Me)-Ile(Me)-LSSTEVGSDTP-NH2] ({C20 diacid-γGlu}-RCNTATCATQRLAEFLHRSSF[Sar][NMeI]LSSTEVGSDTP-NH2; disulfide 2-7)	0.1 nM	SS (SS indicates solubility ≥ 1mg/ml)	SS (SS indicates solubility ≥ 1mg/ml)	SS (SS indicates solubility ≥ 1mg/ml)	SS (SS indicates solubility ≥ 1mg/ml)	SS (SS indicates solubility ≥ 1mg/ml)	SS (SS indicates solubility ≥ 1mg/ml)	SS (SS indicates solubility ≥ 1mg/ml)	
CC[C@H](C)[C@@H](C(=O)N[C@@H](CC(C)C)C(=O)N[C@@H](CO)C(=O)N[C@@H](CO)C(=O)N[C@H](C(=O)N[C@@H](CC(N)=O)C(=O)N[C@H](C(=O)NCC(=O)N[C@@H](CO)C(=O)N[C@@H](CC(N)=O)C(=O)N[C@H](C(=O)N1CCC[C@H]1C(N)=O)[C@@H](C)O)C(C)C)[C@@H](C)O)N(C)C(=O)[C@H](C)NC(=O)CN(C)C(=O)[C@H](Cc1ccccc1)NC(=O)[C@H](CC(N)=O)NC(=O)[C@H](CC(N)=O)NC(=O)[C@H](CO)NC(=O)[C@H](CO)NC(=O)[C@H](CCCNC(=N)N)NC(=O)[C@H](Cc1c[nH]cn1)NC(=O)[C@H](CC(C)C)NC(=O)[C@H](Cc1ccccc1)NC(=O)[C@H](CCC(=O)O)NC(=O)[C@H](C)NC(=O)[C@H](CC(C)C)NC(=O)[C@H](CCCNC(=N)N)NC(=O)[C@H](CCC(N)=O)NC(=O)[C@@H](NC(=O)[C@H](C)NC(=O)[C@@H]1CSSC[C@H](NC(=O)[C@H](CCCNC(=N)N)NC(=O)CC[C@H](NC(=O)CCCCCCCCCCCCCCCCC(=O)O)C(=O)O)C(=O)N[C@@H](CC(N)=O)C(=O)N[C@@H]([C@@H](C)O)C(=O)N[C@@H](C)C(=O)N[C@@H]([C@@H](C)O)C(=O)N1)[C@@H](C)O [Compound 89, [17CD]-isoGlu-RC()NTATC()ATQRLAEFLHRSSNNF-Gly(Me)-A-Ile(Me)-LSSTNVGSNTP-NH2] ({C18 diacid-γGlu}-RCNTATCATQRLAEFLHRSSNNF[Sar]A[NMeI]LSSTNVGSNTP-NH2; disulfide 2-7)		SS (SS indicates solubility ≥ 1mg/ml)	SS (SS indicates solubility ≥ 1mg/ml)	SS (SS indicates solubility ≥ 1mg/ml)	SS (SS indicates solubility ≥ 1mg/ml)	SS (SS indicates solubility ≥ 1mg/ml)	SS (SS indicates solubility ≥ 1mg/ml)	SS (SS indicates solubility ≥ 1mg/ml)	0.054 nM
CC[C@H](C)[C@@H](C(=O)N[C@@H](CC(C)C)C(=O)N[C@@H](CO)C(=O)N[C@@H](CO)C(=O)N[C@H](C(=O)N[C@@H](CC(N)=O)C(=O)N[C@H](C(=O)NCC(=O)N[C@@H](CO)C(=O)N[C@@H](CC(N)=O)C(=O)N[C@H](C(=O)N1CCC[C@H]1C(N)=O)[C@@H](C)O)C(C)C)[C@@H](C)O)N(C)C(=O)CN(C)C(=O)[C@H](Cc1ccccc1)NC(=O)[C@H](CC(N)=O)NC(=O)[C@H](CC(N)=O)NC(=O)[C@@H](CO)NC(=O)[C@H](CO)NC(=O)[C@H](Cc1c[nH]cn1)NC(=O)[C@H](Cc1c[nH]cn1)NC(=O)[C@H](CC(C)C)NC(=O)[C@H](Cc1ccccc1)NC(=O)[C@H](CCC(=O)O)NC(=O)[C@H](C)NC(=O)[C@H](CC(C)C)NC(=O)[C@H](CCCNC(=N)N)NC(=O)[C@H](CCC(N)=O)NC(=O)[C@@H](NC(=O)[C@H](C)NC(=O)[C@@H]1CSSC[C@H](NC(=O)[C@H](CCCNC(=N)N)NC(=O)CC[C@H](NC(=O)CCCCCCCCCCCCCCCCCCC(=O)O)C(=O)O)C(=O)N[C@@H](CC(N)=O)C(=O)N[C@@H]([C@@H](C)O)C(=O)N[C@@H](C)C(=O)N[C@@H]([C@@H](C)O)C(=O)N1)[C@@H](C)O [Compound 34, [19CD]-isoGlu-RC()NTATC()ATQRLAEFLHHS-DSer-NNF-Gly(Me)-Ile(Me)-LSSTNVGSNTP-NH2] ({C20 diacid-γGlu}-RCNTATCATQRLAEFLHHS[dS]NNF[Sar][NMeI]LSSTNVGSNTP-NH2; disulfide 2-7)	0.26 nM								
CC[C@H](C)[C@@H](C(=O)N[C@@H](CC(C)C)C(=O)N[C@@H](CO)C(=O)N[C@@H](CO)C(=O)N[C@H](C(=O)N[C@@H](CC(N)=O)C(=O)N[C@H](C(=O)NCC(=O)N[C@@H](CO)C(=O)N[C@@H](CC(N)=O)C(=O)N[C@H](C(=O)N1CCC[C@H]1C(N)=O)[C@@H](C)O)C(C)C)[C@@H](C)O)N(C)C(=O)[C@H](C)NC(=O)CN(C)C(=O)[C@@H](Cc1ccccc1)NC(=O)[C@H](CC(N)=O)NC(=O)[C@H](CC(N)=O)NC(=O)[C@H](CO)NC(=O)[C@H](CO)NC(=O)[C@H](Cc1c[nH]cn1)NC(=O)[C@H](Cc1c[nH]cn1)NC(=O)[C@H](CC(C)C)NC(=O)[C@H](Cc1ccccc1)NC(=O)[C@H](CCC(=O)O)NC(=O)[C@H](C)NC(=O)[C@H](CC(C)C)NC(=O)[C@H](CCCNC(=N)N)NC(=O)[C@H](CCC(N)=O)NC(=O)[C@@H](NC(=O)[C@H](C)NC(=O)[C@@H]1CSSC[C@H](NC(=O)[C@H](CCCNC(=N)N)NC(=O)CC[C@H](NC(=O)CCCCCCCCCCCCCCCCCCC(=O)O)C(=O)O)C(=O)N[C@@H](CC(N)=O)C(=O)N[C@@H]([C@@H](C)O)C(=O)N[C@@H](C)C(=O)N[C@@H]([C@@H](C)O)C(=O)N1)[C@@H](C)O [Compound 13, [19CD]-isoGlu-RC()NTATC()ATQRLAEFLHHSSNN-DPhe-Gly(Me)-A-Ile(Me)-LSSTNVGSNTP-NH2] ({C20 diacid-γGlu}-RCNTATCATQRLAEFLHHSSNN[dF][Sar]A[NMeI]LSSTNVGSNTP-NH2; disulfide 2-7)									0.067 nM
CC[C@H](C)[C@@H](C(=O)N[C@@H](CC(C)C)C(=O)N[C@@H](CO)C(=O)N[C@@H](CO)C(=O)N[C@H](C(=O)N[C@@H](CC(N)=O)C(=O)N[C@H](C(=O)NCC(=O)N[C@@H](CO)C(=O)N[C@@H](CC(N)=O)C(=O)N[C@H](C(=O)N1CCC[C@H]1C(N)=O)[C@@H](C)O)C(C)C)[C@@H](C)O)N(C)C(=O)[C@@H](C)NC(=O)CN(C)C(=O)[C@H](Cc1ccccc1)NC(=O)[C@H](CC(N)=O)NC(=O)[C@H](CC(N)=O)NC(=O)[C@H](CO)NC(=O)[C@H](CO)NC(=O)[C@H](Cc1c[nH]cn1)NC(=O)[C@H](Cc1c[nH]cn1)NC(=O)[C@H](CC(C)C)NC(=O)[C@H](Cc1ccccc1)NC(=O)[C@H](CCC(=O)O)NC(=O)[C@H](C)NC(=O)[C@H](CC(C)C)NC(=O)[C@H](CCCNC(=N)N)NC(=O)[C@H](CCC(N)=O)NC(=O)[C@@H](NC(=O)[C@H](C)NC(=O)[C@@H]1CSSC[C@H](NC(=O)[C@H](CCCNC(=N)N)NC(=O)CC[C@H](NC(=O)CCCCCCCCCCCCCCCCCCC(=O)O)C(=O)O)C(=O)N[C@@H](CC(N)=O)C(=O)N[C@@H]([C@@H](C)O)C(=O)N[C@@H](C)C(=O)N[C@@H]([C@@H](C)O)C(=O)N1)[C@@H](C)O [Compound 14, [19CD]-isoGlu-RC()NTATC()ATQRLAEFLHHSSNNF-Gly(Me)-DAla-Ile(Me)-LSSTNVGSNTP-NH2] ({C20 diacid-γGlu}-RCNTATCATQRLAEFLHHSSNNF[Sar][dA][NMeI]LSSTNVGSNTP-NH2; disulfide 2-7)									0.21 nM

Reference: patent publication EP3046573B1, “AMYLIN ANALOGUES” (Zealand Pharma A/S, priority 2013, dated 2015)
